This series can be described thus: recombinant UMI read abundance after kanamycin selection (control-corrected) (log10(CPM+1)); higher = more efficient recombination; extreme values may be limits of the assay; sequences stand for … in AGTGCAGAGAAAATCGGCCAGTTTTCTCTGCCTGCAGTCCGCATGCCGTGGGACCCCTTGGGTTCTAACCTGTTGCCTAGATTTATGCAGCGGACTGCCTTTCTCCCAAAGTGATAAACCGG…AGGTTGGTTTCACT; site = the 11-nt donor. Summed up: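 For the IS621 bridge recombinase, a pooled Escherichia coli screen tested donor and donor-binding-loop pairs. Cells received the pair library together with a target plasmid encoding a fixed target and T7-inducible recombinase, then went onto IPTG (0.07 mM) plus kanamycin or unselected plates in duplicate. After PCR across the donor–target junction and sequencing, recombinant UMI counts were normalized to CPM, averaged, and scaled by control-derived factors. Each value is given as log10(CPM+1).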
Consider “ATTGAGCCATGGACCGGTTTTCCCGGTAATCCGTATTTGGT (site ATTGAGTCTAC)”, for which the “recombinant UMI read abundance (log10)” value amounted to 0.633.
For “ATTGAGGCATGGACCGGTTTTCCCGGTAATCCGTATTTGGT (site ATTGAGACTAC)” the value was 0.413; for “ATTGAGGCATGGACCGGTTTTCCCGGTAATCCGTATTTGGT (site ATTGAGCCTAC)”, 0.486; for “ATTGAGGCATGGACCGGTTTTCCCGGTAATCCGTATTTGGT (site ATTGAGGCTAC)”, 0.927.
Consider “ATTGAGGCATGGACCGGTTTTCCCGGTAATCCGTATTTGGT (site ATTGAGTCTAC)”, for which the “recombinant UMI read abundance (log10)” value was found to be 0.801.
“ATTGCAGCATGGACCGGTTTTCCCGGTAATCCGTATTTGAG (site ATTGCAGCTCT)”: the “recombinant UMI read abundance (log10)” value is 1.03.
“ATTGCCGCATGGACCGGTTTTCCCGGTAATCCGTATTTGTC (site ATTGCCGCTGA)”: the “recombinant UMI read abundance (log10)” value was 0.656.
On to “ATTGCCTCATGGACCGGTTTTCCCGGTAATCCGTATTTGCT (site ATTGCCTCTAG)”, for which the “recombinant UMI read abundance (log10)” value is 2.03.
On to “ATTGCGACATGGACCGGTTTTCCCGGTAATCCGTATTTGGT (site ATTGAGACTAC)”, for which the “recombinant UMI read abundance (log10)” value stood at 0.0594.
Consider “ATTGCGACATGGACCGGTTTTCCCGGTAATCCGTATTTGGT (site ATTGCGACTAC)”, for which the “recombinant UMI read abundance (log10)” value came out at 0.639.
For the sequence “ATTGCGACATGGACCGGTTTTCCCGGTAATCCGTATTTGGT (site ATTGGGACTAC)”, the “recombinant UMI read abundance (log10)” value was 0.456.
In the case of “ATTGCGACATGGACCGGTTTTCCCGGTAATCCGTATTTGGT (site ATTGTGACTAC)”, the “recombinant UMI read abundance (log10)” value worked out at 0.225.
As for “ATTGGGACATGGACCGGTTTTCCCGGTAATCCGTATTTGGT (site ATTGAGACTAC)”, the “recombinant UMI read abundance (log10)” value amounted to 0.413.
For “ATTGGGACATGGACCGGTTTTCCCGGTAATCCGTATTTGGT (site ATTGCGACTAC)” the value was 0.021; for “ATTGGGACATGGACCGGTTTTCCCGGTAATCCGTATTTGGT (site ATTGGGACTAC)”, 0.896; for “ATTGGGACATGGACCGGTTTTCCCGGTAATCCGTATTTGGT (site ATTGTGACTAC)”, 0.0209.
For “ATTGTGCCATGGACCGGTTTTCCCGGTAATCCGTATTTGAC (site ATTGTGCCTGT)” the value was 0.819; for “ATTGTGCCATGGACCGGTTTTCCCGGTAATCCGTATTTGCA (site ATTGTGCCTTG)”, 0.682; for “ATTGTGCCATGGACCGGTTTTCCCGGTAATCCGTATTTGTG (site ATTGTGCCTCA)”, 0.054.
“ATTGTGTCATGGACCGGTTTTCCCGGTAATCCGTATTTGAC (site AATGTGTCTGT)”: the “recombinant UMI read abundance (log10)” value came to 0.
With “ATTGTGTCATGGACCGGTTTTCCCGGTAATCCGTATTTGAC (site ACTGTGTCTGT)”, the “recombinant UMI read abundance (log10)” value turned out to be 1.41.
On to “ATTGTGTCATGGACCGGTTTTCCCGGTAATCCGTATTTGAC (site AGTGTGTCTGT)”, for which the “recombinant UMI read abundance (log10)” value came out at 0.
On to “ATTGTGTCATGGACCGGTTTTCCCGGTAATCCGTATTTGAC (site ATTGTGTCTGT)”, for which the “recombinant UMI read abundance (log10)” value is 1.6.
For “ATTGTTACATGGACCGGTTTTCCCGGTAATCCGTATTTGTG (site ATTGTTACTCA)” the value was 0.634; for “ATTTATACATGGACCGGTTTTCCCGGTAATCCGTATTTGAC (site ATATATACTGT)”, 0.718.
In the case of “ATTTATACATGGACCGGTTTTCCCGGTAATCCGTATTTGAC (site ATCTATACTGT)”, the “recombinant UMI read abundance (log10)” value is 1.22.
Take “ATTTATACATGGACCGGTTTTCCCGGTAATCCGTATTTGAC (site ATGTATACTGT)”: the “recombinant UMI read abundance (log10)” value was found to be 1.21.
“ATTTATACATGGACCGGTTTTCCCGGTAATCCGTATTTGAC (site ATTTATACTGT)”: the “recombinant UMI read abundance (log10)” value was found to be 0.544.
“ATTTCTCCATGGACCGGTTTTCCCGGTAATCCGTATTTGAC (site ATTTCTCCTGT)”: the “recombinant UMI read abundance (log10)” value stood at 0.
For the sequence “CAAAATGCATGGACCGGTTTTCCCGGTAATCCGTATTTGAC (site CAAAATGCTGT)”, the “recombinant UMI read abundance (log10)” value worked out at 2.14.
As to “CAAACATCATGGACCGGTTTTCCCGGTAATCCGTATTTGCT (site CAAACATCTAG)”, the “recombinant UMI read abundance (log10)” value was determined as 1.94.
On to “CAAACATCATGGACCGGTTTTCCCGGTAATCCGTATTTGCT (site CGATCATCTAG)”, for which the “recombinant UMI read abundance (log10)” value amounted to 0.
Consider “CAAACGCCATGGACCGGTTTTCCCGGTAATCCGTATTTGTG (site CAAACGCCTCA)”, for which the “recombinant UMI read abundance (log10)” value was found to be 0.56.
For “CAAACGCCATGGACCGGTTTTCCCGGTAATCCGTATTTGTG (site CAACCGCCTCA)”, the “recombinant UMI read abundance (log10)” value came to 0.033.
Regarding “CAAACGCCATGGACCGGTTTTCCCGGTAATCCGTATTTGTG (site CAAGCGCCTCA)”, the “recombinant UMI read abundance (log10)” value came to 0.0253.
As for “CAAACGCCATGGACCGGTTTTCCCGGTAATCCGTATTTGTG (site CAATCGCCTCA)”, the “recombinant UMI read abundance (log10)” value stood at 0.0256.
For the sequence “CAAATAACATGGACCGGTTTTCCCGGTAATCCGTATTTGCA (site CAAATAACTTG)”, the “recombinant UMI read abundance (log10)” value stood at 1.1.
As to “CAAATCCCATGGACCGGTTTTCCCGGTAATCCGTATTTGCT (site CAAATCCCTAG)”, the “recombinant UMI read abundance (log10)” value is 0.
As to “CAAATCCCATGGACCGGTTTTCCCGGTAATCCGTATTTGCT (site CAACTCCCTAG)”, the “recombinant UMI read abundance (log10)” value was 0.00602.
For “CAAATCCCATGGACCGGTTTTCCCGGTAATCCGTATTTGCT (site CAAGTCCCTAG)”, the “recombinant UMI read abundance (log10)” value amounted to 0.
For “CAAATCCCATGGACCGGTTTTCCCGGTAATCCGTATTTGCT (site CAATTCCCTAG)”, the “recombinant UMI read abundance (log10)” value is 0.
For the sequence “CAAATGGCATGGACCGGTTTTCCCGGTAATCCGTATTTGCA (site CAAATGGCTTG)”, the “recombinant UMI read abundance (log10)” value amounted to 2.04.
Turning to “CAACAACCATGGACCGGTTTTCCCGGTAATCCGTATTTGTC (site CAACAACCTGA)”, the “recombinant UMI read abundance (log10)” value came to 0.474.
As for “CAACAGGCATGGACCGGTTTTCCCGGTAATCCGTATTTGTA (site CAACAGGCTTA)”, the figure is 1.18.
On to “CAACATACATGGACCGGTTTTCCCGGTAATCCGTATTTGTG (site CAACATACTCA)”, for which the “recombinant UMI read abundance (log10)” value is 1.83.
Regarding “CAACCGCCATGGACCGGTTTTCCCGGTAATCCGTATTTGTG (site CAAACGCCTCA)”, the “recombinant UMI read abundance (log10)” value was determined as 0.00379.
In the case of “CAACCGCCATGGACCGGTTTTCCCGGTAATCCGTATTTGTG (site CAACCGCCTCA)”, the “recombinant UMI read abundance (log10)” value came out at 0.00924.
On to “CAACCGCCATGGACCGGTTTTCCCGGTAATCCGTATTTGTG (site CAAGCGCCTCA)”, for which the “recombinant UMI read abundance (log10)” value was 0.0348.
As for “CAACCGCCATGGACCGGTTTTCCCGGTAATCCGTATTTGTG (site CAATCGCCTCA)”, the figure is 0.0138; as for “CAACGCACATGGACCGGTTTTCCCGGTAATCCGTATTTGTT (site CAACGCACTAA)”, 1.62.
For “CAAGAGCCATGGACCGGTTTTCCCGGTAATCCGTATTTGTG (site CAAGAGCCTCA)” the value was 1.28.
As for “CAAGAGCCATGGACCGGTTTTCCCGGTAATCCGTATTTGTG (site CAAGCGCCTCA)”, the “recombinant UMI read abundance (log10)” value amounted to 0.0351.
In the case of “CAAGAGCCATGGACCGGTTTTCCCGGTAATCCGTATTTGTG (site CAAGGGCCTCA)”, the “recombinant UMI read abundance (log10)” value was found to be 0.55.
As for “CAAGAGCCATGGACCGGTTTTCCCGGTAATCCGTATTTGTG (site CAAGTGCCTCA)”, the “recombinant UMI read abundance (log10)” value is 0.0217.
For “CAAGCAACATGGACCGGTTTTCCCGGTAATCCGTATTTGCT (site CAAGCAACTAG)” the value was 1.57.
In the case of “CAAGCAACATGGACCGGTTTTCCCGGTAATCCGTATTTGCT (site CAAGCACCTAG)”, the “recombinant UMI read abundance (log10)” value is 0.
For “CAAGCAACATGGACCGGTTTTCCCGGTAATCCGTATTTGCT (site CAAGCAGCTAG)” the value was 0; for “CAAGCAACATGGACCGGTTTTCCCGGTAATCCGTATTTGCT (site CAAGCATCTAG)”, 0.289.
For the sequence “CAAGCCACATGGACCGGTTTTCCCGGTAATCCGTATTTGGG (site CAAGACACTCC)”, the “recombinant UMI read abundance (log10)” value came out at 0.0254.
Regarding “CAAGCCACATGGACCGGTTTTCCCGGTAATCCGTATTTGGG (site CAAGCCACTCC)”, the “recombinant UMI read abundance (log10)” value was 0.408.
As to “CAAGCCACATGGACCGGTTTTCCCGGTAATCCGTATTTGGG (site CAAGGCACTCC)”, the “recombinant UMI read abundance (log10)” value worked out at 0.00628.
As for “CAAGCCACATGGACCGGTTTTCCCGGTAATCCGTATTTGGG (site CAAGTCACTCC)”, the figure is 0.0106.
As for “CAAGCCCCATGGACCGGTTTTCCCGGTAATCCGTATTTGCT (site CAAGCCCCTAG)”, the “recombinant UMI read abundance (log10)” value came out at 2.06.
For the sequence “CAAGCCGCATGGACCGGTTTTCCCGGTAATCCGTATTTGCT (site CAAGCAGCTAG)”, the “recombinant UMI read abundance (log10)” value turned out to be 2.06.
In the case of “CAAGCCGCATGGACCGGTTTTCCCGGTAATCCGTATTTGCT (site CAAGCCGCTAG)”, the “recombinant UMI read abundance (log10)” value came out at 2.56.
As for “CAAGCCGCATGGACCGGTTTTCCCGGTAATCCGTATTTGCT (site CAAGCGGCTAG)”, the figure is 0.00324.
Regarding “CAAGCCGCATGGACCGGTTTTCCCGGTAATCCGTATTTGCT (site CAAGCTGCTAG)”, the “recombinant UMI read abundance (log10)” value is 0.
Turning to “CAAGCGCCATGGACCGGTTTTCCCGGTAATCCGTATTTGGG (site CAAGCGCCTCA)”, the “recombinant UMI read abundance (log10)” value was found to be 0.0177.

For the origin of these results see the supplement of paper PMC11208160.
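Further: IS621 bridge recombinase in Escherichia coli cells against a fixed T5 target plasmid.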
